This passage reports melting point results from a melting point compilation (Tetko et al.; mined from patent text by program, amines drawn as free bases though some values may be those of a salt).

In turn, `CCOC(=O)C1=CNC(COCCN)=C(C(=O)OC)C1c1cccc(Cl)c1Cl` (stereo not given) displayed a melting point of 131 to 132 °C.

For `CC(=O)Nc1nnc(C(F)(F)C(Cl)Cl)s1`, the melting point was 182 to 184 °C.

`COc1nc(N)nc(SC(F)F)n1` gave a melting point of 146 to 150 °C.

In the case of `COc1cc2cc(C(=O)O)cc(-c3ccnc(Cl)c3)c2cc1OC`, the melting point is greater than 250 °C.

Regarding `CCOC(=O)c1cc(Cl)cnc1N`, the melting point lay in the range of 120 to 122 °C.

For the molecule `CCOC(=O)C=Cc1ccc(CCc2nc(-c3ccccc3)oc2C)cc1`, the melting point was in the range of 73 to 74 °C.

`Cc1cc(-c2ccc(C(F)(F)F)cc2)nc(S(C)(=O)=O)n1` came in with a melting point of 94 to 97 °C.

In turn, `Cc1nc(C(O)(c2ccsc2)C(F)(F)F)sc1C` (stereo not given) displayed a melting point of 90 to 92 °C.

For the molecule `CC(C)(C)c1ccc2ncc(C(=O)NCc3ccc(Cl)cc3)c(O)c2c1`, the melting point is 266 °C.

`O=C(OCc1ccccc1)N1CCC(O)(C(=O)O)C1` (stereo not given) came in with a melting point of 142 to 144 °C.

As to `O=C(NCc1ccccn1)Nc1cc(N2CC(c3cccs3)OC2=O)ccn1` (stereo not given), the melting point fell in the range of 187 to 188 °C.

The molecule `OC1CC=C(c2ccc(F)cc2)CC1` (stereo not given) had a melting point of 73 to 74.5 °C.

For the molecule `NCc1ccc2c(c1)nc(CN1C(=O)N(C3CC3)Cc3ccccc31)n2CCCC(F)(F)F`, the melting point is 154 °C.

On to `O=Cc1ccc(OCCC2Oc3ccccc3N(Cc3cccc(Cl)c3)C2=O)cc1` (stereo not given), for which the melting point fell in the range of 130 to 131 °C.

Consider `O=C(CCc1ccccc1)N[C@H](Cc1ccc(C(F)(F)F)cc1)[C@@H](O)c1ccccc1F` (racemic), for which the melting point is 124 to 125 °C.

For `C=C1CC2(C)C(O)CCC2C2C(C)CC3=CC(=O)CCC3C12` (stereo not given), the melting point lay within 138 to 139 °C.

For the molecule `CC(=NO)C1CCC2C3CC=C4C(C)(C)C(=O)C(C#N)CC4(C)C3CCC12C` (stereo not given), the melting point fell in the range of 190 to 192 °C.

The molecule `O=[N+]([O-])c1ccc(C(O)C(COc2ccccc2)N2CCC(Cc3ccccc3)CC2)cc1` (stereo not given) had a melting point of 159 to 162 °C.

With `Cc1ccc(NC(=O)N2C(=O)C3(CCCCC3)NC23CCCCC3)cc1`, the melting point lay in the range of 136 to 138 °C.

For the molecule `CCCC(NC(=O)CN1C(=O)N(c2ccc(C)cc2)C2(CCCCC2)C1=O)c1ccccc1` (stereo not given), the melting point lay within 208 to 210 °C.

For the molecule `CN1CCC(Nc2nc3ccccc3n2Cc2cnccn2)CC1`, the melting point was found to be 169 °C.

In turn, `CCN1CCC(N2C(=O)c3ccc([N+](=O)[O-])cc3C2=O)CC1` came in with a melting point of 153 to 155 °C.

As to `C#CCN1CCCc2ccc(OC(=O)Nc3ccccc3C)cc21`, the melting point was 96 °C.

As to `O=C1OC(CNC(=S)C(F)F)CN1c1ccc(N2CCOCC2)c(F)c1` (stereo not given), the melting point was in the range of 125 to 127 °C.

Molecule `CCOC(=O)NC1CCN(c2ncnc3cc(OC)c(OC)cc23)CC1` registered a melting point of 179 to 181 °C.

On to `COC(=O)c1cc(N)nc(-c2ccc(Cl)c(OC)c2F)n1`, for which the melting point is 188 to 190 °C.

The molecule `CCCc1c(OCCCOc2ccc(C#N)cc2Br)ccc(C(C)=O)c1O` gave a melting point of 88 to 89 °C.

Consider `CC1CN(c2c(F)cc3c(=O)c(C(=O)O)cn(C4CC4)c3c2F)CC1NC(=O)OC(C)(C)C` (stereo not given), for which the melting point was 230 to 231 °C.

The molecule `CCOC(=O)c1ccc(OCc2ccc(C3CCN(C(=O)OC(C)(C)C)CC3)cn2)cc1F` returned a melting point of 92 to 95 °C.

Molecule `CCC(C)C(CO)NC(=O)CC(O)C(CC(C)C)NC(=O)C(Cc1cccs1)NC(=O)C(Cc1cccc2ccccc12)NC(=O)OCc1ccccc1` (mixture of isomers) had a melting point of 160 to 162 °C.

Regarding `C[Si](C)(C)CCCNc1ccc(C(=O)O)cc1`, the melting point lay in the range of 164 to 165 °C.

The molecule `CCCCCCCCCCCCN=C=O` came in with a melting point of 100 to 103 °C.

Take `COC(=O)C(c1ccc(Br)cc1)(c1ccc(Br)cc1)c1ncc[nH]1`: the melting point was determined as 135 °C.

On to `CC(Cl)c1nc2c(C(F)(F)F)cccc2c(=O)o1` (stereo not given), for which the melting point stood at 112 °C.

As to `O=c1[nH]ncc2cc(/C=C\c3ccc(O)cc3)ccc12`, the melting point is 210 °C.

For `CCOC(=O)c1ncn2c1CN=C(c1ccccc1F)c1cc([N+](=O)[O-])ccc1-2`, the melting point lay in the range of 228 to 231 °C.

As to `COc1ccc2c(c1)c(CC#N)cn2C(=O)OC(C)(C)C`, the melting point was determined as 130 °C.

For the molecule `Cc1cc(-c2ccccc2)nc2c1ccn2-c1ccc(C(C)C)cc1Br`, the melting point came to 95.8 °C.

In turn, `O=Cc1cnn(-c2c(Cl)cc(C(F)(F)F)cc2Cl)n1` gave a melting point of 94 to 95 °C.

The molecule `CS(=O)(=O)Nc1ccc(C=O)cc1F` gave a melting point of 151 °C.

`COc1ccc(C(C#N)=C(C)C)cc1OC` gave a melting point of 93 to 95 °C.

Regarding `O=C(O)c1cnc2ccc(Cc3ccccc3)cc2c1`, the melting point was 203 to 205 °C.

`CC(C)n1nc(-c2c(Nc3ccccc3)nc(N)nc2-c2ccc(F)cc2)ccc1=O` came in with a melting point greater than 250 °C.

`COc1cc(OC)cc(-c2ncn(-c3ccc(C(F)(F)F)cc3)c2-c2ccc(N(C)C)cc2)c1` showed a melting point of 84 to 84.5 °C.

With `COc1c(CN(C)C)c2c(c3c1OC(C)(C)C3)C(c1ccccc1)=NC(C)(C)C2`, the melting point lay within 124 to 125 °C.

For `CCOc1cc2c(-c3ccnc(Cl)c3)c(C(=O)OC)c(C(=O)OC)cc2cc1OC`, the melting point lay within 196 to 198 °C.

`O=[N+]([O-])c1ccc(N2CCN3CCC2CC3)nc1` had a melting point of 143 to 146 °C.

As to `CNC(=O)ON=C1SCC(=O)N1C(C)C`, the melting point is 94 to 96 °C.

`O=C1OC(=O)c2cc(OCCCOc3ccccc3)ccc21`: the melting point fell in the range of 96 to 98 °C.

As to `C=CCOc1ccccc1-c1ncc(C(N)=O)c(=O)[nH]1`, the melting point lay within 202 to 204 °C.

Take `CCOC(=O)c1c(OC(C)C)nc2cc(OC)c(OC)cc2c1-c1ccc(OC)c(OC)c1`: the melting point was 142 to 143 °C.

The molecule `O=C(O)C[C@H]1CCCC[C@H]1n1nc(-c2c(-c3ccccc3)nn3ccccc23)ccc1=O` (relative stereo) had a melting point of 238 to 240 °C.

With `COc1ccc(C2=C(c3ccccc3)CCCc3cc(OC4CCCCO4)ccc32)cc1` (stereo not given), the melting point lay within 131 to 133 °C.

Regarding `CCCOc1n[nH]c(=O)[nH]1`, the melting point amounted to 156 °C.

Turning to `N#CC(=CNc1ccccc1)Cc1ccc2c(c1)OCO2`, the melting point was in the range of 150 to 151 °C.

Regarding `CC(C)c1oc(-c2ccc(F)cc2)nc1CC(=O)O`, the melting point was 137 to 138 °C.

With `O=C(O)c1ccccc1CSc1ccc(Br)cc1`, the melting point was 139 to 140 °C.

On to `O=[N+]([O-])c1ccc(Cl)cc1Sc1cccc2cnccc12`, for which the melting point was 151 to 153 °C.

On to `CCOC(=O)c1cc(Cl)ccc1N`, for which the melting point was determined as 80 °C.

`CC(C)CCn1cc([N+](=O)[O-])cc1C(=O)Nc1cc(C(=O)NCCCN2CCOCC2)n(C)c1`: the melting point is 155 to 158 °C.

The molecule `Nc1nc(CSCCN2CCN(C(c3ccccc3)c3ccccc3)CC2)cs1` returned a melting point of 159 to 161 °C.

With `CC(C)(C)OC(=O)C[C@H](NC(=O)CNC(=O)c1csc(NC(=O)NCc2ccccc2)n1)C(=O)NCc1ccccn1`, the melting point came to 108 °C.

Turning to `[N-]=[N+]=NCC1=C(C(=O)O)N2C(=O)C(NC(=O)Cc3csc(=O)s3)C2SC1` (stereo not given), the melting point was determined as 160 °C.

`CC(=O)N(O)Cc1cccc(C(O)C#Cc2ccsc2)c1` (stereo not given) yielded a melting point of 133 °C.

For `O=C1CCc2ccc(NC(=O)c3cc4cccnc4n3Cc3cccc(F)c3)cc2N1`, the melting point was in the range of 280 to 282 °C.

The molecule `CN(C)C=C1Nn2c(nc(-c3ccc([N+](=O)[O-])o3)c2N)S1` had a melting point of 304 °C.

`N#Cc1ccc(-c2ccccc2F)c(F)c1` displayed a melting point of 78 to 79 °C.

On to `C[C@@H](O)CCN1CCC(c2noc3cc(F)ccc23)CC1`, for which the melting point was 82 to 84 °C.

Turning to `O=C1CCC(c2ccc(C(F)(F)F)cc2)=NN1`, the melting point was 177 to 178 °C.

For `COc1ccc(-c2ocnc2-c2cc(OC)c(F)c(OC)c2)cc1N`, the melting point was 140 to 142 °C.

The molecule `CC1CC2=CC(=O)CCC2C2C(O)CC3(C)C(O)CCC3C12` (stereo not given) showed a melting point of 163 °C.

Consider `CCOC(=O)COc1c(CC=C(C)C)c(OC)cc(OC)c1C(=O)C=Cc1ccc(OC)cc1`, for which the melting point is 85 to 86 °C.

Molecule `OC(CSCc1ccc(Cl)cc1)(Cn1cncn1)c1ccc(Cl)cc1Cl` (stereo not given) returned a melting point of 106 to 107 °C.

Molecule `CCCCc1c(CN2C(=O)c3ccccc3C2=O)c(CC(C)C)nc2ccc(OCc3ccccc3)cc12` had a melting point of 166 to 168 °C.

Molecule `CSc1ccc(C=CC(=O)c2cccc([N+](=O)[O-])c2)cc1` showed a melting point of 150 °C.

In turn, `Cc1ccc2ccc(C(=O)O)c(O)c2n1` registered a melting point of 217 to 219 °C.

As to `O=C(O)c1ccc(-c2n[nH]c(-c3ccccc3)n2)cc1`, the melting point is greater than 300 °C.

Molecule `O=C(CCCc1ccccc1)N[C@H](Cc1cccc(C(F)(F)F)c1)[C@@H](O)c1ccc(F)cc1` (racemic) had a melting point of 110 to 111 °C.

In the case of `OCc1cccn2cc(C(F)(F)F)nc12`, the melting point was in the range of 118 to 120 °C.

In the case of `COc1cc(Nc2nc3cccc(-c4cccc(NC(C)=O)c4)c3o2)cc(OC)c1OC`, the melting point was in the range of 170 to 172 °C.

`CN(C)CCn1c(=O)c2c3oc4ccccc4oc3c3[nH]c4cc(O)ccc4c3c2c1=O` registered a melting point greater than 360 °C.

Consider `CCOP(=S)(OCC)Oc1cc(C(=O)OC)sc1C(=O)OC`, for which the melting point stood at 50 °C.

On to `CS(=O)(=O)Nc1nc(CCN2CCC(c3c[nH]c4ccccc34)CC2)cs1`, for which the melting point lay in the range of 141 to 144 °C.

Molecule `CCCCCCCCCCCCCCCCNc1ccc(C(=O)NN)cc1` returned a melting point of 154 to 156 °C.

Take `CCN(CC)C(=O)c1ccsc1-c1ccc(F)cc1`: the melting point lay in the range of 62 to 63 °C.

As to `Cn1c(C(F)(F)F)cc(=O)n(-c2cc(OCCBr)c(Cl)cc2F)c1=O`, the melting point lay in the range of 125 to 127 °C.

Molecule `N#CCc1ccccc1CCNC(=O)c1ccc([N+](=O)[O-])cc1` registered a melting point of 119 °C.

For the molecule `O=C(Cn1ccnc1)c1ccc(F)cc1F`, the melting point was found to be 125 °C.

With `c1ccc2scnc2c1`, the melting point was 134 to 135 °C.

As to `C=CCN1CCc2cc(OC[C@H]3CO[C@](Cn4ccnc4)(c4ccc(Cl)cc4Cl)O3)ccc2C1` (racemic), the melting point fell in the range of 94 to 95 °C.
